Data: the supplement of paper PMC10733146

Columns and labels:
Assay in all cases: viability relative to DMSO control (fraction); higher = less drug effect (more viable cells)
Settings in all cases: 48 h
[1] = system: primary AML patient cells (S056)
How it was run: (§1)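 Viability was quantified by CellTiter-Glo luminescence and related to the median of 16 inner DMSO wells. Before that, primary mononuclear tumour cells, fresh or cryopreserved and Ficoll-isolated from blood or bone marrow or prepared from processed lymph node, were plated at 4 × 10^4 cells per well in 384-well plates containing pre-plated compounds at five concentrations, one well each. Plates were incubated in RPMI-1640 with penicillin/streptomycin, L-glutamine and human serum at 37 °C and 5% CO2 for 48 h.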

[2] = system: primary AML patient cells (S091)
How it was run: as §1

[3] = system: primary AML patient cells (S089)
How it was run: as §1

[4] = system: primary DLBCL patient cells (S082)
How it was run: as §1

[5] = system: primary AML patient cells (S037)
How it was run: as §1

[6] = system: primary FL patient cells (S022)
How it was run: as §1

[7] = system: primary CLL patient cells (S031)
How it was run: as §1

[8] = system: primary AML patient cells (S009)
How it was run: as §1

[9] = system: primary MCL patient cells (S053)
How it was run: as §1

[10] = system: primary T-PLL patient cells (S008)
How it was run: as §1

[11] = system: primary AML patient cells (S055)
How it was run: as §1

[12] = system: primary MCL patient cells (S063)
How it was run: as §1

[13] = system: primary AML patient cells (S072)
How it was run: as §1

[14] = system: primary ALL patient cells (S048)
How it was run: as §1

[15] = system: primary AML patient cells (S006)
How it was run: as §1

[16] = system: primary AML patient cells (S012)
How it was run: as §1

[17] = system: primary FL patient cells (S087)
How it was run: as §1

[18] = system: primary MCL patient cells (S068)
How it was run: as §1

[19] = system: primary AML patient cells (S079)
How it was run: as §1

[20] = system: primary MCL patient cells (S041)
How it was run: as §1

Nc1nc(=S)c2[nH]cnc2[nH]1 [Thioguanin]
viability ([1]; 0.024 µM): 0.912 | viability ([1]; 0.12 µM): 0.897 | viability ([1]; 0.6 µM): 0.889 | viability ([1]; 3 µM): 0.339 | viability ([1]; 15 µM): 0.127 | viability ([2]; 0.024 µM): 0.859 | viability ([2]; 0.12 µM): 0.817 | viability ([2]; 0.6 µM): 0.919 | viability ([2]; 3 µM): 0.6 | viability ([2]; 15 µM): 0.254 | viability ([3]; 0.024 µM): 0.765 | viability ([3]; 0.12 µM): 0.607 | viability ([3]; 0.6 µM): 0.648 | viability ([3]; 3 µM): 0.313 | viability ([3]; 15 µM): 0.0421 | viability ([4]; 0.024 µM): 1.01 | viability ([4]; 0.12 µM): 0.972 | viability ([4]; 0.6 µM): 0.844 | viability ([4]; 3 µM): 0.602 | viability ([4]; 15 µM): 0.457 | viability ([5]; 0.024 µM): 1 | viability ([5]; 0.12 µM): 0.937 | viability ([5]; 0.6 µM): 0.701 | viability ([5]; 3 µM): 0.481 | viability ([5]; 15 µM): 0.395 | viability ([6]; 0.024 µM): 0.991 | viability ([6]; 0.12 µM): 0.955 | viability ([6]; 0.6 µM): 0.835 | viability ([6]; 3 µM): 0.622 | viability ([6]; 15 µM): 0.483 | viability ([7]; 0.024 µM): 1.07 | viability ([7]; 0.12 µM): 0.972 | viability ([7]; 0.6 µM): 0.801 | viability ([7]; 3 µM): 0.613 | viability ([7]; 15 µM): 0.327 | viability ([8]; 0.024 µM): 1.14 | viability ([8]; 0.12 µM): 1.09 | viability ([8]; 0.6 µM): 1.07 | viability ([8]; 3 µM): 0.696 | viability ([8]; 15 µM): 0.489 | viability ([9]; 0.024 µM): 0.893 | viability ([9]; 0.12 µM): 0.699 | viability ([9]; 0.6 µM): 0.45 | viability ([9]; 3 µM): 0.25 | viability ([9]; 15 µM): 0.173 | viability ([10]; 0.024 µM): 1.02 | viability ([10]; 0.12 µM): 0.986 | viability ([10]; 0.6 µM): 0.957 | viability ([10]; 3 µM): 0.9 | viability ([10]; 15 µM): 0.629 | viability ([11]; 0.024 µM): 0.964 | viability ([11]; 0.12 µM): 0.867 | viability ([11]; 0.6 µM): 0.49 | viability ([11]; 3 µM): 0.19 | viability ([11]; 15 µM): 0.114 | viability ([12]; 0.024 µM): 1.03 | viability ([12]; 0.12 µM): 0.867 | viability ([12]; 0.6 µM): 0.495 | viability ([12]; 3 µM): 0.192 | viability ([12]; 15 µM): 0.064 | viability ([13]; 0.024 µM): 1.02 | viability ([13]; 0.12 µM): 1.01 | viability ([13]; 0.6 µM): 0.768 | viability ([13]; 3 µM): 0.538 | viability ([13]; 15 µM): 0.387 | viability ([14]; 0.024 µM): 0.949 | viability ([14]; 0.12 µM): 0.906 | viability ([14]; 0.6 µM): 0.664 | viability ([14]; 3 µM): 0.37 | viability ([14]; 15 µM): 0.17 | viability ([15]; 0.024 µM): 1.07 | viability ([15]; 0.12 µM): 0.996 | viability ([15]; 0.6 µM): 0.57 | viability ([15]; 3 µM): 0.202 | viability ([15]; 15 µM): 0.0984 | viability ([16]; 0.024 µM): 0.99 | viability ([16]; 0.12 µM): 1 | viability ([16]; 0.6 µM): 0.946 | viability ([16]; 3 µM): 0.751 | viability ([16]; 15 µM): 0.513 | viability ([17]; 0.024 µM): 0.998 | viability ([17]; 0.12 µM): 0.952 | viability ([17]; 0.6 µM): 0.804 | viability ([17]; 3 µM): 0.688 | viability ([17]; 15 µM): 0.645 | viability ([18]; 0.024 µM): 0.982 | viability ([18]; 0.12 µM): 0.892 | viability ([18]; 0.6 µM): 0.83 | viability ([18]; 3 µM): 0.6 | viability ([18]; 15 µM): 0.299 | viability ([19]; 0.024 µM): 1.02 | viability ([19]; 0.12 µM): 0.821 | viability ([19]; 0.6 µM): 0.575 | viability ([19]; 3 µM): 0.453 | viability ([19]; 15 µM): 0.254 | viability ([20]; 0.024 µM): 1.02 | viability ([20]; 0.12 µM): 0.879 | viability ([20]; 0.6 µM): 0.681 | viability ([20]; 3 µM): 0.515 | viability ([20]; 15 µM): 0.388

Nc1ccn([C@@H]2O[C@H](CO)[C@@H](O)[C@@H]2O)c(=O)n1 [Cytarabine]
viability ([1]; 0.032 µM): 1.05 | viability ([1]; 0.16 µM): 1 | viability ([1]; 0.8 µM): 0.719 | viability ([1]; 4 µM): 0.177 | viability ([1]; 20 µM): 0.0767 | viability ([2]; 0.032 µM): 0.974 | viability ([2]; 0.16 µM): 0.858 | viability ([2]; 0.8 µM): 0.694 | viability ([2]; 4 µM): 0.513 | viability ([2]; 20 µM): 0.409 | viability ([3]; 0.032 µM): 1.1 | viability ([3]; 0.16 µM): 0.993 | viability ([3]; 0.8 µM): 0.783 | viability ([3]; 4 µM): 0.142 | viability ([3]; 20 µM): 0.0678 | viability ([4]; 0.032 µM): 1.08 | viability ([4]; 0.16 µM): 0.974 | viability ([4]; 0.8 µM): 0.702 | viability ([4]; 4 µM): 0.522 | viability ([4]; 20 µM): 0.484 | viability ([5]; 0.032 µM): 1.08 | viability ([5]; 0.16 µM): 1.03 | viability ([5]; 0.8 µM): 1.02 | viability ([5]; 4 µM): 0.666 | viability ([5]; 20 µM): 0.467 | viability ([6]; 0.032 µM): 1.17 | viability ([6]; 0.16 µM): 1.04 | viability ([6]; 0.8 µM): 1.09 | viability ([6]; 4 µM): 0.93 | viability ([6]; 20 µM): 0.589 | viability ([7]; 0.032 µM): 1.15 | viability ([7]; 0.16 µM): 1.04 | viability ([7]; 0.8 µM): 0.706 | viability ([7]; 4 µM): 0.177 | viability ([7]; 20 µM): 0.0741 | viability ([8]; 0.032 µM): 1.04 | viability ([8]; 0.16 µM): 0.96 | viability ([8]; 0.8 µM): 0.82 | viability ([8]; 4 µM): 0.521 | viability ([8]; 20 µM): 0.383 | viability ([9]; 0.032 µM): 1.01 | viability ([9]; 0.16 µM): 0.754 | viability ([9]; 0.8 µM): 0.327 | viability ([9]; 4 µM): 0.195 | viability ([9]; 20 µM): 0.136 | viability ([10]; 0.032 µM): 1.05 | viability ([10]; 0.16 µM): 0.968 | viability ([10]; 0.8 µM): 0.876 | viability ([10]; 4 µM): 0.434 | viability ([10]; 20 µM): 0.209 | viability ([11]; 0.032 µM): 1.02 | viability ([11]; 0.16 µM): 1.08 | viability ([11]; 0.8 µM): 0.818 | viability ([11]; 4 µM): 0.346 | viability ([11]; 20 µM): 0.189 | viability ([12]; 0.032 µM): 1.11 | viability ([12]; 0.16 µM): 1.08 | viability ([12]; 0.8 µM): 0.957 | viability ([12]; 4 µM): 0.489 | viability ([12]; 20 µM): 0.238 | viability ([13]; 0.032 µM): 1.14 | viability ([13]; 0.16 µM): 1.06 | viability ([13]; 0.8 µM): 0.995 | viability ([13]; 4 µM): 0.774 | viability ([13]; 20 µM): 0.458 | viability ([14]; 0.032 µM): 0.974 | viability ([14]; 0.16 µM): 0.862 | viability ([14]; 0.8 µM): 0.561 | viability ([14]; 4 µM): 0.154 | viability ([14]; 20 µM): 0.0402 | viability ([15]; 0.032 µM): 1.09 | viability ([15]; 0.16 µM): 0.996 | viability ([15]; 0.8 µM): 0.773 | viability ([15]; 4 µM): 0.147 | viability ([15]; 20 µM): 0.0817 | viability ([16]; 0.032 µM): 0.99 | viability ([16]; 0.16 µM): 0.927 | viability ([16]; 0.8 µM): 0.985 | viability ([16]; 4 µM): 0.935 | viability ([16]; 20 µM): 0.602 | viability ([17]; 0.032 µM): 1.03 | viability ([17]; 0.16 µM): 1.02 | viability ([17]; 0.8 µM): 0.959 | viability ([17]; 4 µM): 0.747 | viability ([17]; 20 µM): 0.628 | viability ([18]; 0.032 µM): 1.1 | viability ([18]; 0.16 µM): 1.01 | viability ([18]; 0.8 µM): 0.807 | viability ([18]; 4 µM): 0.38 | viability ([18]; 20 µM): 0.209 | viability ([19]; 0.032 µM): 1.07 | viability ([19]; 0.16 µM): 1.01 | viability ([19]; 0.8 µM): 0.781 | viability ([19]; 4 µM): 0.297 | viability ([19]; 20 µM): 0.0864 | viability ([20]; 0.032 µM): 1.08 | viability ([20]; 0.16 µM): 1 | viability ([20]; 0.8 µM): 0.732 | viability ([20]; 4 µM): 0.21 | viability ([20]; 20 µM): 0.115
